Experimental data taken from US9630991B2, “βsheet tapes ribbons in tissue engineering” (University of Leeds, priority 2002, dated 2017).
“Also recorded” adds a separate entry of the source. Where a name gives a salt, the structure may show the parent alone. Where a SMILES comes first, the peptide text is derived from it. [ ]: non-standard residue; d: D form. Orn = NCCC[C@H](N)C(=O)O

How the values were obtained:
[1] = Fibril dimensions measured from TEM images; format: physicochemical; settings: for L, fibril contour length / h, twist pitch / l, fibril persistence length / wn, width of the fibril at its narrowest point / ww, width of the fibril at its widest point: physiological conditions, TEM
Protocol: For, electron microscopy, samples were examined using a Phillips CM10 TEM at 80-100 kV accelerating voltage. Gels were diluted to a peptide concentration of 20 μM seconds before application to a glow-discharged, carbon-coated, copper grid followed by coating with uranyl acetate solution (4% w/v in water).
The dimensions of the fibrils formed by these peptides are given in Table 2, and TEM images from which these measurements were obtained are shown in FIGS. 6A-6D. These dimensions are—the length of a peptide fibril (contour length, L), the length of a peptide fibril before it curves (persistence length, l), the length of a full twist of a peptide fibril (twist pitch, h) the width of a fibril at its widest point (ww) and the width of the fibril at its narrowest point as it twists (wn).

[2] = test system: L929 fibroblast cells; assay: Cell density in peptide gels by ATPLite assay; format: cell-based, murine
Text: After establishing that the peptides tested were not cytotoxic when placed in culture with L929 fibroblast cells, the next stage was assessing the suitability of the collagen peptide gels for use in supporting cell proliferation.

[3] = Net charge of peptide at pH 7.5 in physiological solution; format: physicochemical; settings: per peptide, pH 7.5, physiological solution
[4] = Self-assembly and gel formation in physiological solution / cell media; format: physicochemical; settings: for peptide concentration for self-supporting gel: physiological conditions
Text: A large number (dozens) of systematically varied peptides (typically 7-30 residues long) have been studied for soluble polymer and gel formation in cell media. […] Only peptides with a approximate net +2 or −2 charge per peptide at physiological pH=7.5, were able to form soluble polymers and gel cell media (The amount of net charge necessary per peptide to keep its polymers soluble in cell media will vary depending on the overall surface properties and solubility of the peptide tapes it forms). […] These peptides retained a predominantly monomeric state and their solutions in cell media were fluids up to around 40 mg/ml peptide concentration.
The rationally designed peptide P11-8 (Tables 1A and 1C) was dissolved in 145 mM NaCl, pH˜7.5 aqueous solution (the ionic strength and pH values of the solution were similar to those present in cell culture medium) or it was added directly in cell culture medium.
The fibrils of P11-8 entwined partly with each other forming a three dimensional network and turned the peptide solution in cell media into a homogeneous self-supporting gel at peptide concentration higher than 15 mg/ml.
The gel could be temporarily broken by mechanical agitation. The time it took the gel to reform depended on the peptide concentration, ranging from seconds for a 35 mg/ml peptide gel, to hours for a 15 mg/ml peptide gel.

[5] = test system: L929 murine fibroblasts; assay: Contact cytotoxicity testing; format: cell-based; settings: peptide gels in culture with L929 fibroblasts
Text: L929 murine fibroblasts growing in contact with the negative collagen control are shown in FIG. 5B and the positive control of cyanoacrylate adhesive is shown in FIG. 5A.

[6] = test system: tissue surrounding the injection site; design: species or system mice; settings: mouse, in vivo
Text: Injection of P11-3 and P11-8 peptide solutions in cell media in mice has shown no effect of the presence of the peptide in the tissue surrounding the injection site as judged by histology after two and eight weeks following the peptide injection.

[7] = Self-assembly and gel formation in physiological solution / cell media; format: physicochemical
[8] = 145 mM NaCl, pH~7.5 or cell culture medium

CC(=O)N[C@@H](CO)C(=O)N[C@@H](CO)C(=O)N[C@@H](CCCNC(=N)N)C(=O)N[C@@H](Cc1ccccc1)C(=O)N[C@@H](CCCN)C(=O)N[C@@H](Cc1c[nH]c2ccccc12)C(=O)N[C@@H](CCCN)C(=O)N[C@@H](Cc1ccccc1)C(=O)N[C@@H](CCC(=O)O)C(=O)N[C@@H](CO)C(=O)N[C@@H](CO)C(N)=O [Peptide P11-12, CH3CO-S-S-R-F-O-W-O-F-E-S-S-NH2] (Ac-SSRF[Orn]W[Orn]FESS-NH2)
L, fibril contour length [1]: 1.3-5 μm
h, twist pitch [1]: 139-220 nm
l, fibril persistence length [1]: 0.4-1.2 μm
wn, width of the fibril at its narrowest point [1]: 5-7 nm
ww, width of the fibril at its widest point [1]: 11-16 nm
support of cell growth ([2]; L929 cells in peptide gels): unsuccessful in supporting cell growth
Net charge at pH 7.5 [3]: +2

CC(=O)N[C@@H](CCC(N)=O)C(=O)N[C@@H](CCC(N)=O)C(=O)N[C@@H](CCCNC(=N)N)C(=O)N[C@@H](CCC(N)=O)C(=O)N[C@@H](CCCN)C(=O)N[C@@H](CCC(N)=O)C(=O)N[C@@H](CCCN)C(=O)N[C@@H](CCC(N)=O)C(=O)N[C@@H](CCC(=O)O)C(=O)N[C@@H](CCC(N)=O)C(=O)N[C@@H](CCC(N)=O)C(N)=O [Peptide P11-19, CH3CO-Q-Q-R-Q-O-Q-O-Q-E-Q-Q-NH2] (Ac-QQRQ[Orn]Q[Orn]QEQQ-NH2)
L, fibril contour length [1]: 1.5-3 μm
h, twist pitch [1]: 206-356 nm
l, fibril persistence length [1]: 0.5-1 μm
wn, width of the fibril at its narrowest point [1]: 7-13 nm
ww, width of the fibril at its widest point [1]: 15-22 nm
Net charge at pH 7.5 [3]: +2
peptide concentration for self-supporting gel [4]: 60 mg/mL
self-assembly / gelation at 30 mg·ml^−1 ([4]; physiological solution, 30 mg·ml^−1): does not self assemble; also recorded: did not gel

CC(=O)N[C@@H](CC(N)=O)C(=O)N[C@@H](CC(N)=O)C(=O)N[C@@H](CCCNC(=N)N)C(=O)N[C@@H](Cc1ccccc1)C(=O)N[C@@H](CCCN)C(=O)N[C@@H](Cc1c[nH]c2ccccc12)C(=O)N[C@@H](CCCN)C(=O)N[C@@H](Cc1ccccc1)C(=O)N[C@@H](CCC(=O)O)C(=O)N[C@@H](CC(N)=O)C(=O)N[C@@H](CC(N)=O)C(N)=O [Peptide P11-16, CH3CO-N-N-R-F-O-W-O-F-E-N-N-NH2] (Ac-NNRF[Orn]W[Orn]FENN-NH2)
contact cytotoxicity [5]: growing in contact with and onto the peptide gel matrix
L, fibril contour length [1]: 1.2-3.9 μm
h, twist pitch [1]: 109-220 nm
l, fibril persistence length [1]: 0.5-1.6 μm
wn, width of the fibril at its narrowest point [1]: 5-10 nm
ww, width of the fibril at its widest point [1]: 11-20 nm
Net charge at pH 7.5 [3]: +2

QQR^+FQWQFQQQ (QQRFQWQFQQQ; self assembling peptide P11-3)
effect on tissue surrounding the injection site by histology [6]: no effect
fibrils and gels after sterilisation using an autoclave ([4]; cell media): reform after sterilisation using an autoclave

CC(=O)N[C@H](C(=O)N[C@H](C(=O)N[C@@H](CCCNC(=N)N)C(=O)N[C@@H](Cc1ccccc1)C(=O)N[C@@H](CCCN)C(=O)N[C@@H](Cc1c[nH]c2ccccc12)C(=O)N[C@@H](CCCN)C(=O)N[C@@H](Cc1ccccc1)C(=O)N[C@@H](CCC(=O)O)C(=O)N[C@H](C(=O)N[C@H](C(N)=O)[C@@H](C)O)[C@@H](C)O)[C@@H](C)O)[C@@H](C)O [Peptide P11-18, CH3CO-T-T-R-F-O-W-O-F-E-T-T-NH2] (Ac-TTRF[Orn]W[Orn]FETT-NH2)
L, fibril contour length [1]: 1.4-4.2 μm
h, twist pitch [1]: 142-236 nm
l, fibril persistence length [1]: 0.5-1.7 μm
wn, width of the fibril at its narrowest point [1]: 7-11 nm
ww, width of the fibril at its widest point [1]: 11-21 nm
support of cell growth ([2]; L929 cells in peptide gels): unsuccessful in supporting cell growth
Net charge at pH 7.5 [3]: +2

CC(=O)N[C@@H](CO)C(=O)N[C@@H](CO)C(=O)N[C@@H](CCCNC(=N)N)C(=O)N[C@@H](Cc1ccccc1)C(=O)N[C@@H](CCC(=O)O)C(=O)N[C@@H](Cc1c[nH]c2ccccc12)C(=O)N[C@@H](CCC(=O)O)C(=O)N[C@@H](Cc1ccccc1)C(=O)N[C@@H](CCC(=O)O)C(=O)N[C@@H](CO)C(=O)N[C@@H](CO)C(N)=O [Peptide P11-9, CH3CO-S-S-R-F-E-W-E-F-E-S-S-NH2] (Ac-SSRFEWEFESS-NH2)
L, fibril contour length [1]: 1.1-5 μm
h, twist pitch [1]: 118-236 nm
l, fibril persistence length [1]: 0.4-1.3 μm
wn, width of the fibril at its narrowest point [1]: 3.5-7 nm
ww, width of the fibril at its widest point [1]: 7-12 nm
support of cell growth ([2]; L929 cells in peptide gels): unsuccessful in supporting cell growth
Net charge at pH 7.5 [3]: −2

CC(=O)N[C@@H](CCC(N)=O)C(=O)N[C@@H](CCC(N)=O)C(=O)N[C@@H](CCCNC(=N)N)C(=O)N[C@@H](Cc1ccccc1)C(=O)N[C@@H](CCCN)C(=O)N[C@@H](Cc1c[nH]c2ccccc12)C(=O)N[C@@H](CCCN)C(=O)N[C@@H](Cc1ccccc1)C(=O)N[C@@H](CCC(=O)O)C(=O)N[C@@H](CCC(N)=O)C(=O)N[C@@H](CCC(N)=O)C(N)=O [Peptide P11-8, CH3CO-Q-Q-R-F-O-W-O-F-E-Q-Q-NH2] (Ac-QQRF[Orn]W[Orn]FEQQ-NH2)
effect on tissue surrounding the injection site by histology [6]: no effect
fibril full pitch [1, 8]: 200-300 nm
fibril length [1, 8]: several micrometers
fibril narrow width [1, 8]: 4-5 nm
fibril wide width [1, 8]: 12-15 nm
L, fibril contour length [1]: 1.2-6.3 μm
h, twist pitch [1]: 140-320 nm
l, fibril persistence length [1]: 0.8-2.5 μm
wn, width of the fibril at its narrowest point [1]: 4-11 nm
ww, width of the fibril at its widest point [1]: 13-19 nm
Net charge at pH 7.5 [3]: +2
time for gel to reform after mechanical agitation ([4]; 15 mg/ml peptide gel): hours
time for gel to reform after mechanical agitation ([4]; 35 mg/ml peptide gel): seconds
fibrils and gels after sterilisation using an autoclave ([4]; cell media): reform after sterilisation using an autoclave
peptide concentration for homogeneous self-supporting gel ([4]; cell media): higher than 15 mg/ml
gel stability ([4]; room temperature, cell media): stable for at least several weeks
conformation / solution state in water ([7]; pH<7 in water): monomeric random coil conformation
self-assembly in low ionic strength media ([7]; pH=7.5, peptide concentrations up to 10 mg/ml): does not self-assemble

CC(=O)N[C@@H](CCC(N)=O)C(=O)N[C@@H](CCC(N)=O)C(=O)N[C@@H](CCCNC(=N)N)C(=O)N[C@@H](CCC(N)=O)C(=O)N[C@@H](CCC(=O)O)C(=O)N[C@@H](CCC(N)=O)C(=O)N[C@@H](CCC(=O)O)C(=O)N[C@@H](CCC(N)=O)C(=O)N[C@@H](CCC(=O)O)C(=O)N[C@@H](CCC(N)=O)C(=O)N[C@@H](CCC(N)=O)C(N)=O [Peptide P11-20, CH3CO-Q-Q-R-Q-E-Q-E-Q-E-Q-Q-NH2] (Ac-QQRQEQEQEQQ-NH2)
L, fibril contour length [1]: 0.9-2.8 μm
h, twist pitch [1]: 202-363 nm
l, fibril persistence length [1]: 0.4-1.5 μm
wn, width of the fibril at its narrowest point [1]: 8-15 nm
ww, width of the fibril at its widest point [1]: 14-20 nm
support of cell growth ([2]; L929 cells in peptide gels): supported cell growth reasonably well
macroscopic appearance of gel ([2]; at end of cell culture experiment): some signs of macroscopic degradation
Net charge at pH 7.5 [3]: −2
peptide concentration for self-supporting gel [4]: > 20 mg/mL

O=C(O)C(F)(F)F [TFA]
support of cell growth ([2]; collagen gels supplemented with 0.9 mg·ml^−1 TFA): supported cell growth with no obvious detrimental effect on the cells
support of cell growth ([2]; collagen gels supplemented with 5.1 mg·ml^−1 TFA): supported cell growth with no visible detrimental effect on cell growth
